The values below come from US20090286713A9, “Collagen Receptor I-Domain Binding Modulators” (Biotie Therapies Corporation, priority 2005, published 2009).

Assay [1] deals with T1, CHO cells expressing α2β1 integrin (Homo sapiens, UniProt P05556+P17301).
T1 sequence (P17301 1-1181): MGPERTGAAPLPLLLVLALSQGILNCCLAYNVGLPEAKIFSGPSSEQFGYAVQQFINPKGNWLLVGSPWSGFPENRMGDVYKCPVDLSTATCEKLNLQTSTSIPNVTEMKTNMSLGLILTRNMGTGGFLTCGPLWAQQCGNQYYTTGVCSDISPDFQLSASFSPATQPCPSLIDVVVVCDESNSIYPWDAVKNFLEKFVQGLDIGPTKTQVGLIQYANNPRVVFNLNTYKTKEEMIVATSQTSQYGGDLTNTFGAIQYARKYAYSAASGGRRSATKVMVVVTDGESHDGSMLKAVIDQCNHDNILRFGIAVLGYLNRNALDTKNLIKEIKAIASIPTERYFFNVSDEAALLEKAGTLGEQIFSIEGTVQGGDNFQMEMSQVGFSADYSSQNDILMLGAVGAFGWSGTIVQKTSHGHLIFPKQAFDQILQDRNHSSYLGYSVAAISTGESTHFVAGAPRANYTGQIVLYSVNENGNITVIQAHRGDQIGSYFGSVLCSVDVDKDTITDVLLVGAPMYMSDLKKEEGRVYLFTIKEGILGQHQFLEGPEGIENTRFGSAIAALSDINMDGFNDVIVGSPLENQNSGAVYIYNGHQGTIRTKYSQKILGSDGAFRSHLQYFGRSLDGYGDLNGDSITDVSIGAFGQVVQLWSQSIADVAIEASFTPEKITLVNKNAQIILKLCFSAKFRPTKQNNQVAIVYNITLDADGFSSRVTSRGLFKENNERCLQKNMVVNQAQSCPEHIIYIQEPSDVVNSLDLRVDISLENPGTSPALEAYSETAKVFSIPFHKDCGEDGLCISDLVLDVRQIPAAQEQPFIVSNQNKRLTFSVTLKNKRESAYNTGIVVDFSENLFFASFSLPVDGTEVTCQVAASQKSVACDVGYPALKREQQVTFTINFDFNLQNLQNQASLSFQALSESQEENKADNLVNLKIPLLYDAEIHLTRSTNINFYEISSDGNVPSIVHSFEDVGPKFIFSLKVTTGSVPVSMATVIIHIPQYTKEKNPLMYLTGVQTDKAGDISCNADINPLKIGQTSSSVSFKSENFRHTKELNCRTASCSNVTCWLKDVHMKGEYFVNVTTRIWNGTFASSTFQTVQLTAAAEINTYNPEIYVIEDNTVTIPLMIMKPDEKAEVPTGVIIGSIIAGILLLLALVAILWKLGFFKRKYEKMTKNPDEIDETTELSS
As to the kind of experiment: Cell adhesion assay, CHO-α2 cells on collagen type I. The class given is cell-based, Chinese Hamster. The method, then: Chinese Hamster Ovary (CHO) cell clone expressing wild type α2 integrin was used in cell adhesion assay. Cells were suspended in serum free medium containing 0.1 mg/ml cycloheximide (Sigma) and the compounds were preincubated with the cells prior to transfer to the wells. Cells (150000/well) were allowed to attach on collagen type I coated wells (in the presence and absence of inhibitor compounds) for 2 h at +37° C. and after that non-adherent cells were removed. Fresh serum free medium was added and the living cells were detected using a cell viability kit (Roche) according to the manufacturers protocol.
For this purpose CHO cells were transfected to express α2β1 integrin on their surface as their only collagen receptor.

Assay [2] deals with PC-3 cells. As to the kind of experiment: Cell invasion assay, PC-3 cells through Matrigel. Type of assay: cell-based. As to conditions: Homo sapiens, 72 hours. As to the method:
Experimental procedure. […] Inserts were stored at −20° C. […] The remaining media was aspirated. […] Inserts were allowed to dry. Fixed invaded cells were calculated under the microscope. Invasion % was calculated as a comparison to the control.

As for `O=S(=O)(Nc1ccc(C(O)c2ccccc2)cc1)c1cccc(-c2ccc(F)cc2)c1` (stereo not drawn) [Compound 452], the inhibition (in general, the drop in the measured response relative to a control, in per cent) at 50 µM in assay [1] (CHO) was 83%. Also, the EC50 – broadly, the midpoint of the concentration-response curve – in assay [1] (CHO-α2 cells, collagen type I, read-out: EC50, adhesion) worked out at 9.4 µM; in assay [2], 0.8 µM.
